Measurements published in patent publication US7015329B2 (Janssen Pharmaceutica N. V., priority 2003, dated 2006).

Legend:
Type in all cases: cell-based
Settings in all cases: 18–24 hrs
[1] = target: T1, PPAR delta (Homo sapiens, UniProt Q03181); assay: Transfection assay for PPAR receptors (GAL4-LBD luciferase reporter), PPAR delta
T1 construct: expressed in transfected cells; host or cells: HEK293
T1 sequence (Q03181 211-439 limits assumed): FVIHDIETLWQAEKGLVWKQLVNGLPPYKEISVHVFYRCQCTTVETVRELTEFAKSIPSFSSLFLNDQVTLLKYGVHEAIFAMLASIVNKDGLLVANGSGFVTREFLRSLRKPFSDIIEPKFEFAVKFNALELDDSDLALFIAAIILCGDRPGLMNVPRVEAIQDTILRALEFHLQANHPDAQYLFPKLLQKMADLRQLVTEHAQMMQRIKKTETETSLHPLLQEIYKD
Method: (§1) Transfection Assay Method for PPAR Receptors
(§2) HEK293 cells were grown in DMEM/F12 medium supplemented with 10% FBS and glutamine (Invitrogen) and incubated in a 5% CO2 incubator at 37° C. The cells were co-transfected using DMRIE-C reagent (Invitrogen) in serum free medium (Opti-MEM, Invitrogen) with two mammalian expression plasmids, one containing the DNA sequence coding for the ligand binding domains of either PPARαg or d fused to the yeast GAL4 DNA binding domain and the other containing the promoter sequence of the yeast GAL4 (UAS) fused to the firefly luciferase cDNA reporter. The next day, the medium was changed to DMEM/F12 medium supplemented with 5% charcoal treated serum (Hyclone) and glutamine. After 6 hrs the cells were trypsinized and seeded at a density of 50,000 cells/well into 96 well plates and incubated overnight as above. The cells were then treated with -test compounds or vehicle and incubated for 18–24 hrs as above. Luciferase reporter activity was measured using the Steady-Glo Luciferase Assay Kit from Promega. DMRIE-C Reagent was purchased from GIBCO Cat. No.10459-014. […] Steady-Glo Luciferase Assay Kit was purchased from Promega (Part#E254B).

[2] = target: T2, PPAR alpha (Homo sapiens, UniProt Q07869); assay: Transfection assay for PPAR receptors (GAL4-LBD luciferase reporter), PPAR alpha
T2 construct: expressed in transfected cells; host or cells: HEK293
T2 sequence (Q07869 239-466 limits assumed): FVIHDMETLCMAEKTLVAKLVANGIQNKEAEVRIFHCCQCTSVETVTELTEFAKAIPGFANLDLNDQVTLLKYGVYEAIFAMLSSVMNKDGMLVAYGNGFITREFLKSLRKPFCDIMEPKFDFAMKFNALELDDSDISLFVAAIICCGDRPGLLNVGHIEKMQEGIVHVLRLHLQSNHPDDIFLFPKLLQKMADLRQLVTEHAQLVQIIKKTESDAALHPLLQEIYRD
Method: as §1
HEK293 cells were grown in DMEM/F12 medium supplemented with 10% FBS and glutamine (Invitrogen) and incubated in a 5% CO2 incubator at 37° C. The cells were co-transfected using DMRIE-C reagent (Invitrogen) in serum free medium (Opti-MEM, Invitrogen) with two mammalian expression plasmids, one containing the DNA sequence coding for the ligand binding domains of either PPARαg or d fused to the yeast GAL4 DNA binding domain and the other containing the promoter sequence of the yeast GAL4 (UAS) fused to the firefly luciferase cDNA reporter. The next day, the medium was changed to DMEM/F12 medium supplemented with 5% charcoal treated serum (Hyclone) and glutamine. After 6 hrs the cells were trypsinized and seeded at a density of 50,000 cells/well into 96 well plates and incubated overnight as above. The cells were then treated with -test compounds or vehicle and incubated for 18–24 hrs as above. Luciferase reporter activity was measured using the Steady-Glo Luciferase Assay Kit from Promega. DMRIE-C Reagent was purchased from GIBCO Cat. No.10459-014. OPTI-MEM I Reduced Serum Medium was purchased from GIBCO (Cat. No. 31985). Steady-Glo Luciferase Assay Kit was purchased from Promega (Part#E254B).
A variety of example compounds have been made and tested, with a range of in vitro results. Below are representative compounds and data; in some cases, where multiple EC50's are shown, multiple measurements were taken. Naturally, different compounds in Formula (I) may have not have activities identical to any one compound below.

[3] = target: T3, PPAR gamma (Homo sapiens, UniProt P37231); assay: Transfection assay for PPAR receptors (GAL4-LBD luciferase reporter), PPAR gamma
T3 construct: expressed in transfected cells; host or cells: HEK293
T3 sequence (P37231 238-503 limits assumed): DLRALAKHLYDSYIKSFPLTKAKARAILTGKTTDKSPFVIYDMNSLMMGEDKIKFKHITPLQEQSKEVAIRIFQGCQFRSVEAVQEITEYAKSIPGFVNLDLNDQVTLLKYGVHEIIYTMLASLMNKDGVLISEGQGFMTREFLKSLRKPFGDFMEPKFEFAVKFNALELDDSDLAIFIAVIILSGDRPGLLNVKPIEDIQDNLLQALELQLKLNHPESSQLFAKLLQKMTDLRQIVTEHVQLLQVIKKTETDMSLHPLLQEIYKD
Method: as §1, §2

[4] = Table 1, HEK293 cells co-transfected with PPAR LBD-GAL4 and GAL4 (UAS) luciferase reporter
[5] = Table 2, compounds of interest, HEK293 cells, PPAR LBD-GAL4 luciferase reporter

| Compound | EC50 [1, 4] | EC50 [2, 4] | EC50 [3, 4] | EC50 [1, 5] | EC50 [2, 5] | EC50 [3, 5] |
| --- | --- | --- | --- | --- | --- | --- |
| Cc1cc(SCc2nc(-c3ccc(Cl)c(Cl)c3)ns2)ccc1OC1(C(=O)O)CCCC1 [Compound 15, 1-{4-[3-(3,4-Dichloro-phenyl)-[1,2,4]thiadiazol-5-ylmethylsulfanyl]-2-methyl-phenoxy}-cyclopentanecarboxylic acid] | > 1000 nM | > 3000 nM | > 3 µM | – | – | – |
| Cc1cc(SCc2nc(-c3ccc(C(F)(F)F)c(F)c3)ns2)ccc1OC(C)(C)C(=O)O [Compound 13, 2-{4-[3-(3-Fluoro-4-trifluoromethyl-phenyl)-[1,2,4]thiadiazol-5-ylmethylsulfanyl]-2-methyl-phenoxy}-2-methyl-propionic acid] | 5.2 nM | 34 nM | 0.64 µM | – | – | – |
| Cc1cc(SCc2nc(-c3ccc(Cl)c(Cl)c3)ns2)ccc1OC(C)(C)C(=O)O [Compound 9, 2-{4-[3-(3,4-Dichloro-phenyl)-[1,2,4]thiadiazol-5-ylmethylsulfanyl]-2-methyl-phenoxy}-2-methyl-propionic acid] | 13 nM | 104 nM | > 3 µM | – | – | – |
| Cc1ccc(-c2nsc(CSc3ccc(OC(C)(C)C(=O)O)c(C)c3)n2)cc1Cl [Compound 12, 2-{4-[3-(3-Chloro-4-methyl-phenyl)-[1,2,4]thiadiazol-5-ylmethylsulfanyl]-2-methyl-phenoxy}-2-methyl-propionic acid] | 27 nM | 68 nM | 0.669 µM | – | – | – |
| Cc1cc(SCc2nsc(-c3ccc(Cl)c(Cl)c3)n2)ccc1OC(C)(C)C(=O)O [Compound 19, 2-{4-[5-(3,4-Dichloro-phenyl)-[1,2,4]thiadiazol-3-ylmethylsulfanyl]-2-methyl-phenoxy}-2-methyl-propionic acid] | 229 nM | > 3000 nM | > 3 µM | – | – | – |
| Cc1cc(SCc2nc(-c3ccc(OC(F)(F)F)cc3)ns2)ccc1OC1(C(=O)O)CCCC1 [Compound 14, 1-{2-Methyl-4-[3-(4-trifluoromethoxy-phenyl)-[1,2,4]thiadiazol-5-ylmethylsulfanyl]-phenoxy}-cyclopentanecarboxylic acid] | > 1000 nM | 736 nM | > 3 µM | – | – | – |
| Cc1cc(SCc2nc(-c3ccc(Cl)cc3Cl)ns2)ccc1OC(C)(C)C(=O)O [Compound 10, 2-{4-[3-(2,4-Dichloro-phenyl)-[1,2,4]thiadiazol-5-ylmethylsulfanyl]-2-methyl-phenoxy}-2-methyl-propionic acid] | 102 nM | 476 nM | > 3 µM | – | – | – |
| Cc1cc(SCc2nc(-c3ccc(C(C)(C)C)cc3)ns2)ccc1OC(C)(C)C(=O)O [Compound 6, 2-{4-[3-(4-tert-Butyl-phenyl)-[1,2,4]thiadiazol-5-ylmethylsulfanyl]-2-methyl-phenoxy}-2-methyl-propionic acid] | 93 nM | 64 nM | > 3 µM | – | – | – |
| Cc1cc(SCc2nsc(-c3ccc(Cl)cc3)n2)ccc1OC(C)(C)C(=O)O [Compound 18, 2-{4-[5-(4-Chloro-phenyl)-[1,2,4]thiadiazol-3-ylmethylsulfanyl]-2-methyl-phenoxy}-2-methyl-propionic acid] | 237 nM | > 3000 nM | > 3 µM | – | – | – |
| Cc1cc(SCc2nc(-c3ccc(OC(F)(F)F)c(Cl)c3)ns2)ccc1OC(C)(C)C(=O)O [Compound 8, 2-{4-[3-(3-Chloro-4-trifluoromethoxy-phenyl)-[1,2,4]thiadiazol-5-ylmethylsulfanyl]-2-methyl-phenoxy}-2-methyl-propionic acid] | 2.8 nM | 28 nM | > 3 µM | – | – | – |
| Cc1cc(SCc2nc(-c3ccc(Cl)cc3)ns2)ccc1OC(C)(C)C(=O)O [Compound 7, 2-{4-[3-(4-Chloro-phenyl)-[1,2,4]thiadiazol-5-ylmethylsulfanyl]-2-methyl-phenoxy}-2-methyl-propionic acid] | 18 nM | 186 nM | > 3 µM | – | – | – |
| Cc1cc(SCc2nsc(-c3ccc(C(F)(F)F)cc3)n2)ccc1OC(C)(C)C(=O)O [Compound 16, 2-Methyl-2-{2-methyl-4-[5-(4-trifluoromethyl-phenyl)-[1,2,4]thiadiazol-3-ylmethylsulfanyl]-phenoxy}-propionic acid] | 26 nM | 425 nM | > 3 µM | – | – | – |
| Cc1ccc(-c2nsc(CSc3ccc(OC(C)(C)C(=O)O)c(C)c3)n2)cc1 [Compound 5, 2-Methyl-2-[2-methyl-4-(3-p-tolyl-[1,2,4]thiadiazol-5-ylmethylsulfanyl)-phenoxy]-propionic acid] | 47 nM | 222 nM | > 3 µM | – | – | – |
| Cc1ccc(-c2nsc(COc3ccc(OC(C)(C)C(=O)O)c(C)c3)n2)cc1Cl [Compound 20, 2-{4-[3-(3-Chloro-4-methyl-phenyl)-[1,2,4]thiadiazol-5-ylmethoxy]-2-methyl-phenoxy}-2-methyl-propionic acid] | 148 nM | 297 nM | > 3 µM | – | – | – |

The next lines start with the values.

| EC50 [1, 4] | EC50 [2, 4] | EC50 [3, 4] | EC50 [1, 5] | EC50 [2, 5] | EC50 [3, 5] | Compound |
| --- | --- | --- | --- | --- | --- | --- |
| 114 nM | 504 nM | > 3 µM | – | – | – | Cc1cc(OCc2nc(-c3ccc(Cl)c(Cl)c3)ns2)ccc1OC(C)(C)C(=O)O [Compound 26, 2-{4-[3-(3,4-Dichloro-phenyl)-[1,2,4]thiadiazol-5-ylmethoxy]-2-methyl-phenoxy}-2-methyl-propionic acid] |
| – | – | – | 150 nM | > 3000 nM | > 3 µM | Cc1cc(SCc2csnc2-c2ccc(C(F)(F)F)cc2)ccc1OCC(=O)O [Compound d, {2-Methyl-4-[3-(4-trifluoromethyl-phenyl)-isothiazol-4-ylmethylsulfanyl]-phenoxy}-acetic acid] |
| – | – | – | 412 nM | > 3000 nM | > 3 µM | Cc1cc([S+]([O-])Cc2nc(-c3ccc(Cl)c(Cl)c3)ns2)ccc1OC(C)(C)C(=O)O (stereo not drawn) [Compound a, 2-{4-[3-(3,4-Dichloro-phenyl)-[1,2,4]thiadiazol-5-ylmethanesulfinyl]-2-methyl-phenoxy}-2-methyl-propionic acid] |
| 13 nM | 96.8 nM | > 3 µM | – | – | – | Cc1cc(OCc2nc(-c3ccc(OC(F)(F)F)c(Cl)c3)ns2)ccc1OC(C)(C)C(=O)O [Compound 25] |
| 3 nM | 85 nM | > 3 µM | – | – | – | Cc1cc(OCc2nc(-c3ccc(C(F)(F)F)c(F)c3)ns2)ccc1OC(C)(C)C(=O)O [Compound 21, 2-{4-[3-(3-Fluoro-4-trifluoromethyl-phenyl)-[1,2,4]thiadiazol-5-ylmethoxy]-2-methyl-phenoxy}-2-methyl-propionic acid] |
| 9.3 nM | 123 nM | > 1 µM | – | – | – | Cc1cc(SCCc2nc(-c3ccc(Cl)c(Cl)c3)ns2)ccc1OC(C)(C)C(=O)O [Compound 27, 2-(4-{2-[3-(3,4-Dichloro-phenyl)-[1,2,4]thiadiazol-5-yl]-ethylsulfanyl}-2-methyl-phenoxy)-2-methyl-propionic acid] |
| 534 nM | 643 nM | > 3 µM | – | – | – | Cc1ccc(-c2nsc(COc3ccc(OC(C)(C)C(=O)O)c(C)c3)n2)cc1C [Compound 22, 2-{4-[3-(3,4-Dimethyl-phenyl)-[1,2,4]thiadiazol-5-ylmethoxy]-2-methyl-phenoxy}-2-methyl-propionic acid] |
